Measurements reported in patent US11497736B2, “Compositions for an orally active 1,2,4-oxadiazole for the treatment of disease” (PTC Therapeutics, Inc., priority 2005, dated 2022).

What was measured:
Format in all cases: in vivo, human
CFTR = experiment: Transepithelial potential difference (TEPD) chloride conductance, Phase 2 study in nonsense-mutation-mediated cystic fibrosis; settings: for Mean change in TEPD chloride conductance: 15 CF patients; for Number of patients with improvement in TEPD chloride conductance to normal / Number of patients with ≥−5 mV improvement in TEPD chloride conductance: patients/total
Description: The measurement of transepithelial potential difference (TEPD), also known as nasal potential difference, provides a sensitive evaluation of sodium and chloride transport directly in secretory epithelial cells via assessment of transepithelial bioelectric properties (Knowles et al., 1981, N. Engl. J. Med. 305(25):1489-95; Knowles et al., 1995, Hum. Gene Ther. 6:445). TEPD is performed in each nostril using standardized techniques (Standaert et al., 2004, Ped. Pulm. 37:385-92). In the procedure, a small plastic catheter is used to assess electrical differences across the outer cell membrane of nasal mucosa cells in the nostril. TEPD values are expressed in millivolts, or mV. A chloride conductance equal to or more electrically negative than −5.0 mV is generally considered to be in the normal range. […] TEPD assessments can also be made on rectal epithelial cells and lower respiratory epithelial cells. Because of the role of the CFTR protein in transporting chloride ions across cell membranes, and because of the absence of this protein, cystic fibrosis patients have an abnormal TEPD chloride conductance. As an endpoint, TEPD has the advantage that it can detect chloride transport changes that are a quantitative integration of the presence, functional activity, and apical location of the CFTR in airway cells. Furthermore, it is a direct measure of CFTR activity that is not likely to be affected by supportive or palliative treatments for CF (with the possible exception of systemically administered aminoglycoside antibiotics). Of importance is evidence that TEPD values can correlate with the degree of pulmonary dysfunction and radiographic abnormality (Ho et al., 1997, Eur. Respir. J. 10(9):2018-22; Fajac et al., 1998, Eur. Respir. J 12(6):1295-300; Sermet-Gaudelus et al., 2005, Am. J. Respit. Crit. Care Med. 171(9):1026-1031). […] Under baseline conditions, TEPD-assessed chloride channel activity is very unlikely to normalize spontaneously in patients with CF; any observed improvements in TEPD-assessed chloride channel activity are expected to specifically denote pharmacological activity of CFTR-correcting therapies. Accordingly, it has become the primary endpoint in Phase 1-2 pharmacological and gene replacement studies aimed at correcting CFTR dysfunction (Peckham et al., 1995, AJ. Clin Sci (London). 89(3):277-84; Wilschanski et al., 2003, N. Engl. J Med. 349(15):1433-41).
(§1) 3-[5-(2-Fluoro-phenyl)-[1,2,4]oxadiazol-3-yl]-benzoic acid was provided in a formulation described herein.
(§2) Clinical endpoints were evaluated using the procedures set forth above. TEPD measurements were made prior to treatment and on days 14 and 28 of Cycle 1 and Cycle 2. Nasal mucosal curettage was collected from each nostril of each patient prior to treatment and on days 14 and 28 of Cycle 1 and Cycle 2. Pulmonary tests, including FEV1, FVC and MEF25-75, were measured prior to treatment, on day −1 of Cycle 2, on day 13 or 14 of Cycle 1 and day 13 or 14 of Cycle 2 in the study being conducted in Israel and the same parameters were measured prior to treatment and on day 13 or 14 of Cycle 2 in the study being conducted in the United States.
This is the average of the changes from the beginning to the end of the treatment period in TEPD chloride conductance within each study participant. For example, if the changes in TEPD chloride conductance within each of three participants were −7.0 mV, −2.0 mV and −9.0 mV, the mean change in TEPD chloride conductance among these participants would be −6.0 mV.
For purposes of the trials, a chloride conductance response is defined as a TEPD chloride conductance improvement of at least −5 mV. For example, in a patient with a TEPD chloride conductance value of +1.0 mV at baseline and a TEPD chloride conductance value of −6.0 mV at the end of treatment, the TEPD chloride conductance improvement would be −7.0 mV, representing a chloride conductance response. […]

[1] = Patient-reported changes in cystic fibrosis symptoms, asked by trial investigators; settings: of the 15 patients in the interim analysis
Description: as §1
In addition, although changes in patient's symptoms were not formally measured through the use of a quality-of-life questionnaire, trial investigators were requested to ask about changes in patients' cystic fibrosis symptoms. In the 15 patients included in the interim analysis, 6 reported general improvements in well being, 6 reported decrease in cough and 10 reported decreased mucus thickness and easier clearing of mucus.

[2] = Pulmonary function tests (FEV1, FVC) by spirometry, Phase 2 cystic fibrosis study
Description: Pulmonary function tests, including FEV1, FVC, and MEF25-75, are measured using standard spirometry procedures. Assessments of pulmonary function (including MEF25-75, FVC, and, particularly, FEV1) have been acknowledged as definitive clinical endpoints in patients with CF (Food and Drug Administration, 62nd Anti-Infective Drugs Advisory Committee. Discussion of NDA for tobramycin solution for inhalation (Tobi®) for the management of cystic fibrosis patients. November, 1997; Tiddens, 2002, Pediatr. Pulmonol. 34(3): 228-31). […] Pulmonary function testing is simple to administer (even in patients as young as 7 years of age), and uses standardized equipment and techniques that are widely available. Interpretation is performed using well-established normative equations that account for patient age, height, and gender.
as §1, §2
(§3) Statistically significant results and positive trends for secondary endpoints were also observed. In particular, although the trials were not been powered to detect statistical significant changes in secondary endpoints, statistically significant improvements from study entry to the end of the higher-dose treatment cycle in the patients' mean FEV1, FVC and weight were observed.

[3] = Body weight, Phase 2 cystic fibrosis study
Description: as §1, §3

[4] = Best of nostrils, higher dose level
[5] = Best of nostrils, lower dose level
[6] = Mean of both nostrils, higher dose level
[7] = Mean of both nostrils, lower dose level
[8] = Change from study entry to end of higher dose treatment

Structure (SMILES): O=C(O)c1cccc(-c2noc(-c3ccccc3F)n2)c1 [3-[5-(2-Fluoro-phenyl)-[1,2,4]oxadiazol-3-yl]-benzoic acid]
- Number of patients with improvement in TEPD chloride conductance to normal (percentage) (CFTR; [4]): (53%)
- Number of patients with ≥−5 mV improvement in TEPD chloride conductance (percentage) (CFTR; [4]): (53%)
- Mean change in TEPD chloride conductance (CFTR; Best of nostrils, higher dose level (10, 10, 20 mg/kg TID oral, 14 days)): −6.4 mV
- Number of patients with improvement in TEPD chloride conductance to normal (CFTR; [4]): 8/15
- Number of patients with ≥−5 mV improvement in TEPD chloride conductance (CFTR; [4]): 8/15
- Number of patients with improvement in TEPD chloride conductance to normal (percentage) (CFTR; [5]): (53%)
- Number of patients with ≥−5 mV improvement in TEPD chloride conductance (percentage) (CFTR; [5]): (60%)
- Mean change in TEPD chloride conductance (CFTR; Best of nostrils, lower dose level (4, 4, 8 mg/kg TID oral, 14 days)): −9.0 mV
- Number of patients with improvement in TEPD chloride conductance to normal (CFTR; [5]): 8/15
- Number of patients with ≥−5 mV improvement in TEPD chloride conductance (CFTR; [5]): 9/15
- Number of patients with improvement in TEPD chloride conductance to normal (percentage) (CFTR; [6]): (47%)
- Number of patients with ≥−5 mV improvement in TEPD chloride conductance (percentage) (CFTR; [6]): (47%)
- Mean change in TEPD chloride conductance (CFTR; Mean of both nostrils, higher dose level (10, 10, 20 mg/kg TID oral, 14 days)): −4.4 mV
- Number of patients with improvement in TEPD chloride conductance to normal (CFTR; [6]): 7/15
- Number of patients with ≥−5 mV improvement in TEPD chloride conductance (CFTR; [6]): 7/15
- Number of patients with improvement in TEPD chloride conductance to normal (percentage) (CFTR; [7]): (40%)
- Number of patients with ≥−5 mV improvement in TEPD chloride conductance (percentage) (CFTR; [7]): (40%)
- Mean change in TEPD chloride conductance (CFTR; Mean of both nostrils, lower dose level (4, 4, 8 mg/kg TID oral, 14 days)): −6.7 mV
- Number of patients with improvement in TEPD chloride conductance to normal (CFTR; [7]): 6/15
- Number of patients with ≥−5 mV improvement in TEPD chloride conductance (CFTR; [7]): 6/15
- Patients who reported decrease in cough [1]: 6
- Patients who reported decreased mucus thickness and easier clearing of mucus [1]: 10
- Patients who reported general improvements in well being [1]: 6
- Mean FEV1 change (percentage of normal for gender, age and height) [2, 8]: 3.3%
- Mean FVC change (percentage of normal for gender, age and height) [2, 8]: 4.9%
- Mean FEV1 (percentage of normal for gender, age and height) ([2]; End of higher dose treatment, study entry 65.8%): 69.1%
- Mean FVC (percentage of normal for gender, age and height) ([2]; End of higher dose treatment, study entry 80.2%): 85.1%
- Weight change [3, 8]: 0.7 kg
- Weight ([3]; End of higher dose treatment, study entry 58.3 kg): 59.0 kg
